Test [1] concerns the target T1, Recombinant mouse FAP (Mus musculus, UniProt P97321).
T1 construct: purchased R&D systems 8647-SE
T1 sequence (P97321 1-761): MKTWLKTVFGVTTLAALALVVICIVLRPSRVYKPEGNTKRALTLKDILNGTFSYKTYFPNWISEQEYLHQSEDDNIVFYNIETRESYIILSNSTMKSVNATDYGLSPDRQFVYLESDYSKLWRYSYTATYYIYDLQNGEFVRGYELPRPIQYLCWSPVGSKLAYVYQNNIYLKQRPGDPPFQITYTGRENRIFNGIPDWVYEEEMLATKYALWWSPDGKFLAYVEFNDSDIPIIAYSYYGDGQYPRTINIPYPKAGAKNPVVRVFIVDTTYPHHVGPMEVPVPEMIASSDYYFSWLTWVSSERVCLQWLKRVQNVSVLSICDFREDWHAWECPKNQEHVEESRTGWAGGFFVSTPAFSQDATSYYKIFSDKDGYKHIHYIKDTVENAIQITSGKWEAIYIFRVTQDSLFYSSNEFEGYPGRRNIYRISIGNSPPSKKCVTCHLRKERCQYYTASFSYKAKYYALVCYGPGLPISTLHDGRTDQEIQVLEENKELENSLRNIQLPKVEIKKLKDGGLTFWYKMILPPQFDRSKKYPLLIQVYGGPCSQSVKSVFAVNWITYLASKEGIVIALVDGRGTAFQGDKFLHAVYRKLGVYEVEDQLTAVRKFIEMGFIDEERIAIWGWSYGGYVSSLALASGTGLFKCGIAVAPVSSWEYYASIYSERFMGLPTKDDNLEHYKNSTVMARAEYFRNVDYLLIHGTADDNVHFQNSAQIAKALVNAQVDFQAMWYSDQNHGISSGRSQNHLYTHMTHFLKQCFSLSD
The test is described as follows: FRET-based FAP protease activity assay (mouse). It counts as biochemical. The note with it: FRET-peptide substrate, 37°C; for IC50: read-out: pIC50 (mouseFAP) (converted). Here is the method: (§1) In order to determine the inhibitory activity a FRET-based FAP protease activity assay was established.
25 µL of a 30 µM substrate solution, diluted in assay buffer, was added. […] Four parameter logistic (4PL) curve fitting and pIC50 calculations were performed using ActivityBase software.

The target in test [2] is T2, FAP-expressing human WI-38 fibroblasts (Homo sapiens, UniProt Q12884).
T2 construct: FAP-expressing human WI-38 fibroblasts (ECACC 90020107) were cultured in EMEM; host or cells: WI-38 human fibroblasts
T2 sequence (Q12884 1-760): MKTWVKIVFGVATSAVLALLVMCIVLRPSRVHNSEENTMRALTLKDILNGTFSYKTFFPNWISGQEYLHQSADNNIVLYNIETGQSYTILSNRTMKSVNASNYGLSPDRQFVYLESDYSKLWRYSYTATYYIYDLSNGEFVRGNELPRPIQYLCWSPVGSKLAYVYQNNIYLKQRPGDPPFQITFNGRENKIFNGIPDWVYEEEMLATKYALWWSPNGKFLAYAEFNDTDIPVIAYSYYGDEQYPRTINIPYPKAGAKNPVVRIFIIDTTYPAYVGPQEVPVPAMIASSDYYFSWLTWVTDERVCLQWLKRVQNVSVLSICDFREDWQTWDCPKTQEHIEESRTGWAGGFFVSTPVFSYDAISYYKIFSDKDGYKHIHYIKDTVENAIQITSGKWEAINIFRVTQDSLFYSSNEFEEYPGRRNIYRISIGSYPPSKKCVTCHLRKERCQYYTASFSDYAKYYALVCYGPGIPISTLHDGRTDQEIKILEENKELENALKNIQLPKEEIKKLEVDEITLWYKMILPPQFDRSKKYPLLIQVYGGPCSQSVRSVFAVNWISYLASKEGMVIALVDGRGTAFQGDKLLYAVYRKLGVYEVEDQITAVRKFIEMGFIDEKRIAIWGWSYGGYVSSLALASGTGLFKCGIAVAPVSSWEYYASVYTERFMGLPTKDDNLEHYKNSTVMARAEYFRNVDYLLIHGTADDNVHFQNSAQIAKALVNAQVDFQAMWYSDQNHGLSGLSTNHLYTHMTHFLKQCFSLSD
Kind of test: Competitive FACS binding assay (displacement of Cy5-labeled FAP inhibitor 3BP-2935). The following applies: 3 nM Cy5-labeled 3BP-2935, 4°C, 1 hour. Here is the method:
In order to determine binding of compounds according to the present invention to FAP-expressing cells, a competitive FACS binding assay was established.
Cells were diluted in FACS buffer to a final concentration of 100.000 cells per ml and 200 µl of the cell suspension are transferred to a u-shaped non-binding 96-well plate (Greiner).
Cell were washed twice with FACS buffer (see above) and resuspended in 200 µl FACS buffer. Cells were analyzed in an Attune NxT flow cytometer (Thermo Fisher Scientific). Median fluorescence intensities (Cy5 channel) was calculated by Attune NxT software and plotted against test compound concentrations. Four parameter logistic (4PL) curve fitting and pIC50 calculations were performed using ActivityBase software.
(In flow cytometry, cells or beads pass a laser one at a time.)

Test [3] addresses T3, Human recombinant FAP (Homo sapiens, UniProt Q12884).
T3 sequence (Q12884 1-760): T2 sequence (Q12884 1-760)
The test is described as follows: FRET-based FAP protease activity assay (human). Also on record: purchased R&D systems 3715-SE. Type of test: biochemical. The following applies: FRET-peptide substrate, 37°C; for IC50: read-out: pIC50 (Activity) (converted). On the procedure: as §1
25 µL of a 30 µM substrate solution, diluted in assay buffer, was added. […] Four parameter logistic (4PL) curve fitting and pIC50 calculations were performed using ActivityBase software (IDBS).

Test [4] addresses T4, Recombinant human DPP4 (Homo sapiens, UniProt P27487).
T4 construct: purchased R&D systems 9168-SE
Kind of test: DPP4 protease activity assay. It counts as biochemical. The following applies: 20 µM GP-AMC substrate; for IC50: read-out: pIC50 (DPP4) (converted). Here is the method:
The PREP activity assay was performed using the FACS buffer (PBS including 1% FBS, Sigma-Aldrich, Cat# D8537). […] The DPP4 activity assay was performed in DPP assay buffer (25 mM Tris, pH 8.0).
Four parameter logistic (4PL) curve fitting and pIC50 calculations were performed using ActivityBase software.

In test [5] the target is T3, Human recombinant FAP. Kind of test: Surface plasmon resonance assay (Biacore T200, single cycle kinetics). It counts as binding. The note with it: SPR, 25°C; for pKD (Biacore): 1:1 Langmuir binding model; for HL [min] (Biacore): half-life. On the procedure:
Surface plasmon resonance studies were performed using a Biacore™ T200 SPR system (Cytiva, formerly GE Healthcare). Briefly, polarized light is directed towards a gold-labeled sensor surface, and minimum intensity reflected light is detected. The angle of reflected light changes as molecules bind and dissociate. […] Test compounds are contacted with the loaded surface, and a real-time interaction profile with the FAP ligand is recorded in a sensorgram. In real-time, the association and dissociation of a binding interaction is measured, enabling calculation of association and dissociation rate constants and the corresponding affinity constants. Importantly, a background response is generated due to the difference in the refractive indices of the running and sample buffers, as well as unspecific binding of the test compounds to the flow cell surface. This background is measured and subtracted by running the sample on a control flow cell coated with the same density of capture antibody in the absence of immobilized FAP. Furthermore, baseline drift correction of the binding data is performed, which is caused by slow dissociation of the captured FAP from the immobilized antibody. This drift is measured by injecting running buffer through a flow cell with the antibody and FAP immobilized to the sensor surface.
Biacore™ CM5 sensor chips were used. […] A 150 µL aliquot was transferred into plastic vials and placed into the sample rack of the Biacore™ T200 instrument. Amine Coupling Kit Reagent solutions were transferred into plastic vials and placed into the sample rack: 90 µL of 0.4 M 1-ethyl-3-(3-dimethylaminopropyl)carbodiimide (EDC), and 90 µL of 0.1 M N-hydroxysuccinimide (NHS). A 130 µL aliquot of 1 M ethanolamine-HCl, pH 8.5, was transferred into plastic vials and placed into the sample rack. The Biacore™ liquid system was set-up as follows: Separate bottles containing distilled water (1 L), Running Buffer (500 mL), as well as an empty bottle for waste were placed onto the buffer tray. A preinstalled program for immobilization was used, with an immobilization level of 7000 RU. Immobilization was performed at 25°C. The immobilization procedure of anti-FAP antibodies was performed, as described in the Table 5. Table 5: Immobilization protocol for anti-FAP antibodies used on the CM5 sensor chip.
Human recombinant FAP was diluted in Running Buffer to a final concentration of 20 µg/mL. A 100 µL aliquot of human FAP-Working-Solution was transferred into plastic vials and placed into a sample rack. A 0.5 mM Compound-Stock-Solution was prepared by dissolving each compound in DMSO. For each test compound, Compound-Stock-Solutions were diluted in Running Buffer (HBST) at 500 nM and further diluted with HBST-DMSO Buffer (0.1% DMSO). SPR binding analyses for binary complexes were performed in SCK mode at 25°C. Following three SCK measurements, a baseline drift was assessed by injecting running buffer through a flow cell, with the antibody and FAP immobilized to the sensor surface. Table 6: Protocol for assessing the binding kinetics.
For each test compound, SPR raw data in the form of resonance units (RU) were plotted as sensorgrams using the Biacore™ T200 control software. The signal from the blank sensorgram was subtracted from that of the test compound sensorgram (blank corrected). The blank corrected sensorgram was corrected for baseline drift by subtracting the sensorgram of a SCK run without the test compound (running buffer only). The association rate (kon), dissociation rate (koff), dissociation constant (KD), and t1/2 were calculated from Blank-normalized SPR data using the 1:1 Langmuir binding model from the Biacore™ T200 evaluation software. Raw data and fit results were imported as text files in IDBS. The pKD value (negative decadic logarithm of dissociation constant) was calculated in the IDBS excel template.
Background: Surface plasmon resonance follows binding to a sensor surface in real time, without labels.

T4 sequence (P27487 whole entry): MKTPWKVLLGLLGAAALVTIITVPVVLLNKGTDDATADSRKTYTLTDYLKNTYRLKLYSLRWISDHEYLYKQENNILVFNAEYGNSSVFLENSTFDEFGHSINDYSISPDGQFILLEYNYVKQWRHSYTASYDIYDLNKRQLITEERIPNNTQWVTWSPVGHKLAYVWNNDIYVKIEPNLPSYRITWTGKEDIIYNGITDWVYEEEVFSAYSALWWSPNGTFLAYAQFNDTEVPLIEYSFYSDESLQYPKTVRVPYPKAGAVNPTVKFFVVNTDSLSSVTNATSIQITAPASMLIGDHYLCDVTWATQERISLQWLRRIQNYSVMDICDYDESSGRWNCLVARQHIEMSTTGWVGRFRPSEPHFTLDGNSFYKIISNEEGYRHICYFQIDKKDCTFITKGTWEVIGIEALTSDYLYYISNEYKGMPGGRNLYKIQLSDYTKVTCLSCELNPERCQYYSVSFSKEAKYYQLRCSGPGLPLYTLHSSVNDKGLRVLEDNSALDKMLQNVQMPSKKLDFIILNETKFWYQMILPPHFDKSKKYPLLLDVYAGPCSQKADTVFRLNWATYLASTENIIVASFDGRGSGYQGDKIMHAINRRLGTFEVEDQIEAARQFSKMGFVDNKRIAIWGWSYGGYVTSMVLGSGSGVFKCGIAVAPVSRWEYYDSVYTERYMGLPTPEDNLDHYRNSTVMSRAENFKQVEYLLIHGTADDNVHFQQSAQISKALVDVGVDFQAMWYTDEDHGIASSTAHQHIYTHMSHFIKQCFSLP

On to `O=C(NCC(=O)N1CCC[C@H]1C(=O)c1ncn[nH]1)c1ccnc2ccccc12`, for which the IC50 in test [1] was 79.4 nM; in test [2], 200 nM; in test [3], 63.1 nM.

In the case of `CS(=O)(=O)c1ccc(-c2ccc3nccc(C(=O)NCC(=O)N4C[C@@H](F)C[C@H]4C#N)c3c2)cc1`, the IC50 was 0.631 nM in test [1], 1.58 nM in test [2], 0.631 nM in test [3] and over 1000 nM in test [4].

Turning to `Cc1cc(S(C)(=O)=O)ccc1-c1ccc2nccc(C(=O)NCC(=O)N3CCC[C@H]3C#N)c2c1`, the IC50 in test [1] was 1.26 nM; in test [2], 12.6 nM; in test [3], 0.631 nM; in test [4], over 1000 nM.

For `CS(=O)(=O)c1ccc(-c2ccc3nccc(C(=O)NCC(=O)N4C[C@H](F)C[C@H]4C#N)c3c2)cc1`, the IC50 in test [1] is 10 nM; in test [2], 50.1 nM; in test [3] it was 3.16 nM; in test [4], over 1000 nM.

As to `Cc1cc2nccc(C(=O)NCC(=O)N3CC(F)(F)C[C@H]3C#N)c2cc1-c1ccc(S(C)(=O)=O)cc1`, the IC50 in test [1] was 1.58 nM; in test [2], 1.26 nM; in test [3] it was 0.501 nM.

With `CN(CCCN1CCN(C(=O)CN2CCN(CC(=O)O)CCN(CC(=O)O)CCN(CC(=O)O)CC2)CC1)c1ccc2nccc(C(=O)NCC(=O)N3CC(F)(F)C[C@H]3C#N)c2c1`, in test [5], the “pKD (Biacore)” value was over 11 and the “HL [min] (Biacore)” value is over 500 min. The “pIC50 (mouseFAP)” value in test [1] came to 8.6. Further, in test [2], the “pIC50 (FACS)” value came out at 9. Further, the “pIC50 (Activity)” value in test [3] is 8.9.

As for `CS(=O)(=O)c1cc(F)c(-c2ccc3nccc(C(=O)NCC(=O)N4CCC[C@H]4C#N)c3c2)c(F)c1`, the IC50 is 1 nM in test [1], 3.16 nM in test [2], 0.501 nM in test [3] and over 1000 nM in test [4].

For `N#C[C@@H]1CC(F)(F)CN1C(=O)CNC(=O)c1cc[n+]([O-])c2ccc(-c3ccc(S(=O)(=O)CCCNC(=O)CN4CCN(CC(=O)O)CCN(CC(=O)O)CCN(CC(=O)O)CC4)cc3)cc12`, in test [5], the “pKD (Biacore)” value is on record as over 11 and the “HL [min] (Biacore)” value is on record as 110 min. For the same compound, in test [1], the “pIC50 (mouseFAP)” value is recorded as 9.1. Further, in test [4], the “pIC50 (DPP4)” value was determined as 7.

With `Cc1c(-c2ccc(S(C)(=O)=O)cc2)ccc2nccc(C(=O)NCC(=O)N3CC(F)(F)C[C@H]3C#N)c12`, the figures for the IC50 in test [1], in test [2] and in test [3] were 2 nM, 2 nM and 0.501 nM, respectively.

Regarding `Cc1cc(S(C)(=O)=O)ccc1-c1ccc2nccc(C(=O)NCC(=O)N3CC(F)(F)C[C@H]3C#N)c2c1`, the IC50 in test [1] is 1.58 nM; in test [2] it was 2 nM; in test [3] it was 0.501 nM; in test [4], 794 nM.

With `N#C[C@@H]1CC(F)(F)CN1C(=O)CNC(=O)c1ccnc2ccc(OCCCN3CCN(C(=O)CN4CCN(CC(=O)O)CCN(CC(=O)O)CCN(CC(=O)O)CC4)CC3)cc12` [drawing 287], in test [5], the “HL [min] (Biacore)” value is over 500 min. For the same compound, in test [1], the “pIC50 (mouseFAP)” value was determined as 8.8. Moreover, the “pIC50 (DPP4)” value in test [4] was under 6.

In the case of `N#C[C@@H]1CCCN1C(=O)CNC(=O)c1ccnc2ccc(-c3ccc(C(=O)NCCCN(CC(=O)O)C(=O)CN4CCN(CC(=O)O)CCN(CC(=O)O)CCN(CC(=O)O)CC4)cc3)cc12`, in test [5], the “pKD (Biacore)” value was over 11 and the “HL [min] (Biacore)” value is on record as over 500 min. In addition, in test [1], the “pIC50 (mouseFAP)” value is recorded as 8.9. The “pIC50 (DPP4)” value in test [4] is on record as under 6.

(Values after patent EP4122499A1, “FIBROBLAST ACTIVATION PROTEIN INHIBITORS AND USE THEREOF” (3B Pharmaceuticals GmbH, priority 2021, dated 2023).)
